Experimental data reported in patent US7687457B2, “Cyclic molecular framework and derivatives thereof” (The University of Queensland, priority 1999, dated 2010).
Where a SMILES comes first, the peptide text is derived from it.

Test system: erythrocytes
Test: haemolytic activity, lysis of erythrocytes
Type: cell-based
Conditions: haemolysis; read-out: concentration causing 50% lysis of erythrocytes

## CC[C@H](C)[C@@H]1NC(=O)CNC(=O)[C@H](CC(N)=O)NC(=O)[C@H](Cc2ccc(O)cc2)NC(=O)[C@@H]2CSSC[C@@H]3NC(=O)[C@@H]4CCCN4C(=O)[C@H]([C@@H](C)CC)NC(=O)[C@H](Cc4ccc(O)cc4)NC(=O)[C@H](C(C)C)NC(=O)[C@@H]4CSSC[C@H](NC(=O)[C@H](CO)NC(=O)[C@H](CSSC[C@H](NC(=O)[C@@H]5CCCN5C1=O)C(=O)N[C@@H](C)C(=O)N[C@@H](CCC(=O)O)C(=O)N[C@@H](CO)C(=O)N4)NC(=O)CNC(=O)[C@H](CC(C)C)NC(=O)[C@H](CC(C)C)NC(=O)[C@H](C)NC(=O)[C@H]([C@@H](C)O)NC(=O)[C@H](C(C)C)NC(=O)[C@H]([C@@H](C)O)NC3=O)C(=O)N[C@@H](CO)C(=O)N[C@@H](CC(N)=O)C(=O)N[C@@H](CCCNC(=N)N)C(=O)N[C@@H](C(C)C)C(=O)N2 [cycloviolacin 01] (HELM PEPTIDE1{A.E.S.C.V.Y.I.P.C.T.V.T.A.L.L.G.C.S.C.S.N.R.V.C.Y.N.G.I.P.C}$PEPTIDE1,PEPTIDE1,4:R3-19:R3|PEPTIDE1,PEPTIDE1,9:R3-24:R3|PEPTIDE1,PEPTIDE1,17:R3-30:R3|PEPTIDE1,PEPTIDE1,1:R1-30:R2$$$V2.0)
  EC50: ~20 µM
